# Reference: the supplement of paper PMC10307832
# What was measured:
# Assay in all cases: relative viability (nuclei count vs DMSO), 5 days (fraction); higher = more cells survive
# [1] = system: SW 1573
# Method in brief: (§1)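 Relative viability is defined as nuclei in treated wells over nuclei in vehicle wells. Duplicate plates were run and medians reported. Lung cancer cell lines in 1536-well plates were dosed by pin tool one day after seeding, with one drug or with a fixed anchor-drug dose plus five library-drug doses (not always all listed) in √10 steps, and nuclei were counted after 5 days.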
# [2] = system: NCI-H650
# Method in brief: as §1
# [3] = system: LU99A
# Method in brief: as §1
# [4] = system: HCC-78
# Method in brief: as §1
# [5] = system: HARA
# Method in brief: as §1
# [6] = system: NCI-H358
# Method in brief: as §1
# [7] = system: LC-2-ad
# Method in brief: as §1
# [8] = system: NCI-H2023
# Method in brief: as §1
# [9] = system: EPLC-272H
# Method in brief: as §1
# [10] = system: HCC-15
# Method in brief: as §1
# [11] = system: NCI-H2126
# Method in brief: as §1
# [12] = system: NCI-H2085
# Method in brief: as §1
# [13] = system: NCI-H1651
# Method in brief: as §1
# [14] = system: NCI-H2342
# Method in brief: as §1
# [15] = system: PC-14
# Method in brief: as §1
# [16] = system: NCI-H838
# Method in brief: as §1
# [17] = system: COR-L23
# Method in brief: as §1
# [18] = system: ABC-1
# Method in brief: as §1
# [19] = system: NCI-H1915
# Method in brief: as §1
# [20] = system: NCI-H2347
# Method in brief: as §1
# [21] = system: NCI-H1355
# Method in brief: as §1
# [22] = system: UMC-11
# Method in brief: as §1
# [23] = system: NCI-H1993
# Method in brief: as §1
smiles,measurement,setting,value
C=C1C(=O)O[C@@H](CCCCCCCC)[C@@H]1C(=O)O [C-75] + N=C(N)NC(=N)NCCc1ccccc1 [Phenformin] (partner 250 µM),relative viability,[1]; first compound 0.08 µM,0.462
same,relative viability,[1]; first compound 0.253 µM,0.351
same,relative viability,[1]; first compound 0.8 µM,0.376
same,relative viability,[1]; first compound 2.53 µM,0.381
same,relative viability,[1]; first compound 8 µM,0.244
same,relative viability,[2]; first compound 0.08 µM,0.474
same,relative viability,[2]; first compound 0.253 µM,0.409
same,relative viability,[2]; first compound 0.8 µM,0.371
same,relative viability,[2]; first compound 2.53 µM,0.4
same,relative viability,[2]; first compound 8 µM,0.41
same,relative viability,[3]; first compound 0.08 µM,0.848
same,relative viability,[3]; first compound 0.253 µM,0.863
same,relative viability,[3]; first compound 0.8 µM,0.816
same,relative viability,[3]; first compound 2.53 µM,0.749
same,relative viability,[3]; first compound 8 µM,0.641
same,relative viability,[4]; first compound 0.08 µM,0.844
same,relative viability,[4]; first compound 0.253 µM,0.849
same,relative viability,[4]; first compound 0.8 µM,0.544
same,relative viability,[4]; first compound 2.53 µM,0.595
same,relative viability,[4]; first compound 8 µM,0.625
same,relative viability,[5]; first compound 0.08 µM,0.46
same,relative viability,[5]; first compound 0.253 µM,0.487
same,relative viability,[5]; first compound 0.8 µM,0.342
same,relative viability,[5]; first compound 2.53 µM,0.306
same,relative viability,[5]; first compound 8 µM,0.434
same,relative viability,[6]; first compound 0.08 µM,0.306
same,relative viability,[6]; first compound 0.253 µM,0.328
same,relative viability,[6]; first compound 0.8 µM,0.296
same,relative viability,[6]; first compound 2.53 µM,0.326
same,relative viability,[6]; first compound 8 µM,0.215
same,relative viability,[7]; first compound 0.08 µM,0.561
same,relative viability,[7]; first compound 0.253 µM,0.566
same,relative viability,[7]; first compound 0.8 µM,0.544
same,relative viability,[7]; first compound 2.53 µM,0.483
same,relative viability,[7]; first compound 8 µM,0.54
same,relative viability,[8]; first compound 0.08 µM,0.394
same,relative viability,[8]; first compound 0.253 µM,0.502
same,relative viability,[8]; first compound 0.8 µM,0.367
same,relative viability,[8]; first compound 2.53 µM,0.384
same,relative viability,[8]; first compound 8 µM,0.372
same,relative viability,[9]; first compound 0.08 µM,0.33
same,relative viability,[9]; first compound 0.253 µM,0.281
same,relative viability,[9]; first compound 0.8 µM,0.276
same,relative viability,[9]; first compound 2.53 µM,0.28
same,relative viability,[9]; first compound 8 µM,0.271
same,relative viability,[10]; first compound 0.08 µM,0.489
same,relative viability,[10]; first compound 0.253 µM,0.469
same,relative viability,[10]; first compound 0.8 µM,0.42
same,relative viability,[10]; first compound 2.53 µM,0.377
same,relative viability,[10]; first compound 8 µM,0.446
same,relative viability,[11]; first compound 0.08 µM,0.505
same,relative viability,[11]; first compound 0.253 µM,0.558
same,relative viability,[11]; first compound 0.8 µM,0.501
same,relative viability,[11]; first compound 2.53 µM,0.48
same,relative viability,[11]; first compound 8 µM,0.515
same,relative viability,[12]; first compound 0.08 µM,0.827
same,relative viability,[12]; first compound 0.253 µM,0.693
same,relative viability,[12]; first compound 0.8 µM,0.629
same,relative viability,[12]; first compound 2.53 µM,0.63
same,relative viability,[12]; first compound 8 µM,0.67
same,relative viability,[13]; first compound 0.08 µM,0.35
same,relative viability,[13]; first compound 0.253 µM,0.315
same,relative viability,[13]; first compound 0.8 µM,0.354
same,relative viability,[13]; first compound 2.53 µM,0.306
same,relative viability,[13]; first compound 8 µM,0.291
same,relative viability,[14]; first compound 0.08 µM,0.542
same,relative viability,[14]; first compound 0.253 µM,0.634
same,relative viability,[14]; first compound 0.8 µM,0.664
same,relative viability,[14]; first compound 2.53 µM,0.512
same,relative viability,[14]; first compound 8 µM,0.524
same,relative viability,[15]; first compound 0.08 µM,0.469
same,relative viability,[15]; first compound 0.253 µM,0.516
same,relative viability,[15]; first compound 0.8 µM,0.479
same,relative viability,[15]; first compound 2.53 µM,0.549
same,relative viability,[15]; first compound 8 µM,0.526
same,relative viability,[16]; first compound 0.08 µM,0.572
same,relative viability,[16]; first compound 0.8 µM,0.515
same,relative viability,[16]; first compound 2.53 µM,0.453
same,relative viability,[16]; first compound 8 µM,0.49
same,relative viability,[17]; first compound 0.08 µM,0.44
same,relative viability,[17]; first compound 0.253 µM,0.386
same,relative viability,[17]; first compound 0.8 µM,0.41
same,relative viability,[17]; first compound 2.53 µM,0.42
same,relative viability,[17]; first compound 8 µM,0.421
same,relative viability,[18]; first compound 0.08 µM,0.209
same,relative viability,[18]; first compound 0.253 µM,0.289
same,relative viability,[18]; first compound 0.8 µM,0.231
same,relative viability,[18]; first compound 2.53 µM,0.19
same,relative viability,[18]; first compound 8 µM,0.199
same,relative viability,[19]; first compound 0.08 µM,0.361
same,relative viability,[19]; first compound 0.253 µM,0.375
same,relative viability,[19]; first compound 0.8 µM,0.368
same,relative viability,[19]; first compound 2.53 µM,0.318
same,relative viability,[19]; first compound 8 µM,0.325
same,relative viability,[20]; first compound 0.08 µM,0.506
same,relative viability,[20]; first compound 0.253 µM,0.599
same,relative viability,[20]; first compound 0.8 µM,0.401
same,relative viability,[20]; first compound 8 µM,0.379
same,relative viability,[21]; first compound 0.08 µM,0.488
same,relative viability,[21]; first compound 0.253 µM,0.444
same,relative viability,[21]; first compound 0.8 µM,0.452
same,relative viability,[21]; first compound 2.53 µM,0.401
same,relative viability,[21]; first compound 8 µM,0.484
same,relative viability,[22]; first compound 0.08 µM,0.335
same,relative viability,[22]; first compound 0.253 µM,0.346
same,relative viability,[22]; first compound 0.8 µM,0.325
same,relative viability,[22]; first compound 2.53 µM,0.278
same,relative viability,[22]; first compound 8 µM,0.272
same,relative viability,[23]; first compound 0.08 µM,0.528
same,relative viability,[23]; first compound 0.253 µM,0.574
same,relative viability,[23]; first compound 0.8 µM,0.476
same,relative viability,[23]; first compound 2.53 µM,0.46
same,relative viability,[23]; first compound 8 µM,0.506
